Patent publication US20170050957A1, “4-AMINO-6-(HETEROCYCLIC)PICOLINATES AND 6-AMINO-2-(HETEROCYCLIC)PYRIMIDINE-4-CARBOXYLATES AND THEIR USE AS HERBICIDES” (Dow AgroSciences LLC, priority 2013, published 2017)
Where two headings read alike, the source gives them in different places.

Experiments:
[1] = system: Key Broadleaf Weed and Crop Species; test: Post-emergent Test II herbicidal activity (Table 15); assay type: in vivo; details: post-emergence, 336 h, 14 d; for pest or weed control at 35 g/ha: 35 g ai/ha; for pest or weed control at 70 g/ha: 70 g ai/ha; for pest or weed control at 140 g/ha: 140 g ai/ha
Method in brief: (§1)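 Plants at first-second true leaf stage, grown 7-21 d in greenhouse (~15 h photoperiod, 23-29 °C day), were track-sprayed at 187 L/ha with compound in acetone/DMSO/water/isopropanol/crop oil/Triton X-155 at a high rate plus 1/2× to 1/16× dilutions. Injury scored visually after 14 d versus untreated plants, 0 (none) to 100% (complete kill).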

[2] = system: Key Grass and Sedge Weeds as well as Grass Crops; test: Post-emergent Test II herbicidal activity (Table 16); assay type: in vivo; details: post-emergence, 336 h, 14 d; for pest or weed control at 35 g/ha: 35 g ai/ha; for pest or weed control at 70 g/ha: 70 g ai/ha; for pest or weed control at 140 g/ha: 140 g ai/ha
Method in brief: as §1

[3] = Abutilon theophrasti, velvetleaf (Abutilon theophrasti), read-out: Visual Growth Reduction (%) 14 Days After Application, ABUTH
[4] = Amaranthus retroflexus, redroot pigweed (Amaranthus retroflexus), read-out: Visual Growth Reduction (%) 14 Days After Application, AMARE
[5] = Brassica napus, oilseed rape, canola (Brassica napus), read-out: Visual Growth Reduction (%) 14 Days After Application, BRSNN
[6] = Chenopodium album, lambsquarters (Chenopodium album), read-out: Visual Growth Reduction (%) 14 Days After Application, CHEAL
[7] = Euphorbia heterophylla, wild poinsettia (Euphorbia heterophylla), read-out: Visual Growth Reduction (%) 14 Days After Application, EPHHL
[8] = Helianthus annuus, sunflower (Helianthus annuus), read-out: Visual Growth Reduction (%) 14 Days After Application, HELAN
[9] = Cyperus esculentus, yellow nutsedge (Cyperus esculentus), read-out: Visual Growth Reduction (%) 14 Days After Application, CYPES
[10] = Echinochloa crus-galli, barnyardgrass (Echinochloa crus-galli), read-out: Visual Growth Reduction (%) 14 Days After Application, ECHCG
[11] = Oryza sativa, rice (Oryza sativa), read-out: Visual Growth Reduction (%) 14 Days After Application, ORYSA
[12] = Triticum aestivum, wheat, spring (Triticum aestivum), read-out: Visual Growth Reduction (%) 14 Days After Application, TRZAS
[13] = Zea mays, maize, corn (Zea mays), read-out: Visual Growth Reduction (%) 14 Days After Application, ZEAMX
[14] = Setaria faberi, giant foxtail (Setaria faberi), read-out: Visual Growth Reduction (%) 14 Days After Application, SETFA

SMILES	pest or weed control at 35 g/ha [1, 3] [%]	pest or weed control at 70 g/ha [1, 3] [%]	pest or weed control at 140 g/ha [1, 3] [%]	pest or weed control at 35 g/ha [1, 4] [%]	pest or weed control at 70 g/ha [1, 4] [%]	pest or weed control at 140 g/ha [1, 4] [%]	pest or weed control at 35 g/ha [1, 5] [%]	pest or weed control at 70 g/ha [1, 5] [%]	pest or weed control at 140 g/ha [1, 5] [%]	pest or weed control at 35 g/ha [1, 6] [%]	pest or weed control at 70 g/ha [1, 6] [%]	pest or weed control at 140 g/ha [1, 6] [%]	pest or weed control at 35 g/ha [1, 7] [%]	pest or weed control at 70 g/ha [1, 7] [%]	pest or weed control at 140 g/ha [1, 7] [%]	pest or weed control at 35 g/ha [1, 8] [%]	pest or weed control at 70 g/ha [1, 8] [%]	pest or weed control at 140 g/ha [1, 8] [%]	pest or weed control at 35 g/ha [2, 9] [%]	pest or weed control at 70 g/ha [2, 9] [%]	other results
COC(=O)c1nc(-c2ccc(Cl)c3occc23)cc(N)c1Cl [Compound 2.19]	95 to 100	95 to 100	95 to 100	95 to 100	95 to 100	95 to 100	0 to 29	60 to 74	60 to 74	95 to 100	95 to 100	95 to 100	0 to 29	0 to 29	0 to 29	0 to 29	75 to 84	75 to 84	0 to 29	0 to 29	pest or weed control at 140 g/ha [2, 9]: 0 to 29%; pest or weed control at 35 g/ha [2, 10]: 0 to 29%; pest or weed control at 70 g/ha [2, 10]: 0 to 29%; pest or weed control at 140 g/ha [2, 10]: 0 to 29%; pest or weed control at 35 g/ha [2, 11]: 0 to 29%; pest or weed control at 70 g/ha [2, 11]: 0 to 29%; pest or weed control at 140 g/ha [2, 11]: 0 to 29%; pest or weed control at 35 g/ha [2, 12]: 0 to 29%; pest or weed control at 70 g/ha [2, 12]: 0 to 29%; pest or weed control at 140 g/ha [2, 12]: 0 to 29%; pest or weed control at 35 g/ha [2, 13]: 0 to 29%; pest or weed control at 70 g/ha [2, 13]: 0 to 29%; pest or weed control at 140 g/ha [2, 13]: 0 to 29%; melting point: 158 to 159 °C
COc1c(N)nc(-c2ccc(Cl)c3occc23)nc1C(=O)O [Compound 2.22]	30 to 44	30 to 44	45 to 59	95 to 100	95 to 100	95 to 100	0 to 29	45 to 59	60 to 74	95 to 100	95 to 100	95 to 100	0 to 29	0 to 29	0 to 29	75 to 84	85 to 94	95 to 100	0 to 29	0 to 29	pest or weed control at 140 g/ha [2, 9]: 0 to 29%; pest or weed control at 35 g/ha [2, 10]: 0 to 29%; pest or weed control at 70 g/ha [2, 10]: 0 to 29%; pest or weed control at 140 g/ha [2, 10]: 0 to 29%; pest or weed control at 35 g/ha [2, 11]: 0 to 29%; pest or weed control at 70 g/ha [2, 11]: 0 to 29%; pest or weed control at 140 g/ha [2, 11]: 0 to 29%; pest or weed control at 35 g/ha [2, 14]: 0 to 29%; pest or weed control at 70 g/ha [2, 14]: 0 to 29%; pest or weed control at 140 g/ha [2, 14]: 0 to 29%; pest or weed control at 35 g/ha [2, 12]: 0 to 29%; pest or weed control at 70 g/ha [2, 12]: 0 to 29%; pest or weed control at 140 g/ha [2, 12]: 0 to 29%; pest or weed control at 35 g/ha [2, 13]: 0 to 29%; pest or weed control at 70 g/ha [2, 13]: 0 to 29%; pest or weed control at 140 g/ha [2, 13]: 0 to 29%; melting point: 204 to 206 °C
Nc1nc(-c2ccc(Cl)c3occc23)nc(C(=O)O)c1Cl [Compound 2.23]	0 to 29	0 to 29	0 to 29	95 to 100	95 to 100	95 to 100	0 to 29	0 to 29	0 to 29	95 to 100	95 to 100	95 to 100	0 to 29	0 to 29	0 to 29	85 to 94	95 to 100	95 to 100	0 to 29	0 to 29	pest or weed control at 140 g/ha [2, 9]: 0 to 29%; pest or weed control at 35 g/ha [2, 10]: 0 to 29%; pest or weed control at 70 g/ha [2, 10]: 0 to 29%; pest or weed control at 140 g/ha [2, 10]: 0 to 29%; pest or weed control at 35 g/ha [2, 11]: 0 to 29%; pest or weed control at 70 g/ha [2, 11]: 0 to 29%; pest or weed control at 140 g/ha [2, 11]: 0 to 29%; pest or weed control at 35 g/ha [2, 14]: 0 to 29%; pest or weed control at 70 g/ha [2, 14]: 0 to 29%; pest or weed control at 140 g/ha [2, 14]: 0 to 29%; pest or weed control at 35 g/ha [2, 12]: 0 to 29%; pest or weed control at 70 g/ha [2, 12]: 0 to 29%; pest or weed control at 140 g/ha [2, 12]: 0 to 29%; pest or weed control at 35 g/ha [2, 13]: 0 to 29%; pest or weed control at 70 g/ha [2, 13]: 0 to 29%; pest or weed control at 140 g/ha [2, 13]: 0 to 29%; melting point: 173 to 174.5 °C
